Common to all, as to format: biochemical
One test addresses thrombin (Homo sapiens, UniProt P00734). The test can be described thus: Thrombin amidolytic assay (chromogenic substrate Chromozym TH). The method, then:
(§1) The compounds of the present invention are dissolved in buffer to give solutions containing concentrations such that assay concentrations range from about 0 to about 100 μM. In the assays for thrombin, prothrombinase and factor Xa, a synthetic chromogenic substrate is added to a solution containing test compound and the enzyme of interest and the residual catalytic activity of that enzyme is determined spectrophotometrically. The IC50 of a compound is determined from the substrate turnover. The IC50 is the concentration of test compound giving about 50% inhibition of the substrate turnover.
(§2) The factor Xa and thrombin assays were performed at room temperature, in 0.02 M Tris-HCl buffer, pH 7.5, containing 0.15 M NaCl. The rates of hydrolysis of the para-nitroanilide substrate S-2765 (Chromogenix) for factor Xa, and the substrate Chromozym TH (Boehringer Mannheim) for thrombin following preincubation of the enzyme with inhibitor for 5 minutes at room temperature, and were determined using the Softmax 96-well plate reader (Molecular Devices), monitored at 405 nm to measure the time dependent appearance of p-nitroaniline.

The next test addresses factor Xa (Homo sapiens, UniProt P00742). The test is described as follows: Factor Xa amidolytic assay (chromogenic substrate S-2765). On the procedure:
as §1, §2

The target in the next test is prothrombinase complex (Homo sapiens, UniProt P00742). The test is described as follows: Prothrombinase inhibition assay in a plasma free system. The following applies: table of Examples 6-18; unit inferred; read-out: IIASE (IC50). The method, then: as §1
prothrombinase complex, sequence (P00742 235-488 limits assumed): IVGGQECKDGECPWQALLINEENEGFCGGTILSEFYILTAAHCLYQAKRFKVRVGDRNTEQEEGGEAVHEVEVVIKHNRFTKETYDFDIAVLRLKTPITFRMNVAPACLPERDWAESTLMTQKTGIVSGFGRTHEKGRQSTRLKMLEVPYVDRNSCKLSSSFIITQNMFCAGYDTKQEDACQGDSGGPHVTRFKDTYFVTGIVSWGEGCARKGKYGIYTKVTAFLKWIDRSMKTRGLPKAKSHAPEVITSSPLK
prothrombinase complex, sequence (P00742 41-179 limits assumed): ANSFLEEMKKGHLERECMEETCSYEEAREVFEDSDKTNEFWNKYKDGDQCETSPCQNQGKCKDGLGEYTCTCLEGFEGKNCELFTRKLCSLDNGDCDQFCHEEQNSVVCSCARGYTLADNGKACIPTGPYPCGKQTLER
prothrombinase complex, sequence (P12259 29-737 partner limits assumed): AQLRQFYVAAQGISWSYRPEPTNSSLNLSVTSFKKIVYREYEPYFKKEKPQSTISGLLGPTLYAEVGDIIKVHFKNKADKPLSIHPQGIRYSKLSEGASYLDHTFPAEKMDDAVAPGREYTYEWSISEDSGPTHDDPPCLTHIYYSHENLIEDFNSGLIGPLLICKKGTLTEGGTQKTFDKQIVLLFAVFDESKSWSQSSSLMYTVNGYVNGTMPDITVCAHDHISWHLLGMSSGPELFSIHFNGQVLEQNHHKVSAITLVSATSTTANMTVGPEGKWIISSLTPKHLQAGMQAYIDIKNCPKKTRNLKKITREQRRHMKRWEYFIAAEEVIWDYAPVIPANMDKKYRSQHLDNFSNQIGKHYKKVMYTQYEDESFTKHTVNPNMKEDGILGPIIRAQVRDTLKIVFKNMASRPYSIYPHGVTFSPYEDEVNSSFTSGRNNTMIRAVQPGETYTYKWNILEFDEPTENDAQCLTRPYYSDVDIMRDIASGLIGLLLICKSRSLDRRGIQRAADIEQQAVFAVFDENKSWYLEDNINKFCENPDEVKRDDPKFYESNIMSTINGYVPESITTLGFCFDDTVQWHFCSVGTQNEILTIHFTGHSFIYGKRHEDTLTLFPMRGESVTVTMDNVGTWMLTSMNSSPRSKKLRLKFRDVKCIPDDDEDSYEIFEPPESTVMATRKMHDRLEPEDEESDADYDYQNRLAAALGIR
prothrombinase complex, sequence (P12259 1574-2224 partner limits assumed): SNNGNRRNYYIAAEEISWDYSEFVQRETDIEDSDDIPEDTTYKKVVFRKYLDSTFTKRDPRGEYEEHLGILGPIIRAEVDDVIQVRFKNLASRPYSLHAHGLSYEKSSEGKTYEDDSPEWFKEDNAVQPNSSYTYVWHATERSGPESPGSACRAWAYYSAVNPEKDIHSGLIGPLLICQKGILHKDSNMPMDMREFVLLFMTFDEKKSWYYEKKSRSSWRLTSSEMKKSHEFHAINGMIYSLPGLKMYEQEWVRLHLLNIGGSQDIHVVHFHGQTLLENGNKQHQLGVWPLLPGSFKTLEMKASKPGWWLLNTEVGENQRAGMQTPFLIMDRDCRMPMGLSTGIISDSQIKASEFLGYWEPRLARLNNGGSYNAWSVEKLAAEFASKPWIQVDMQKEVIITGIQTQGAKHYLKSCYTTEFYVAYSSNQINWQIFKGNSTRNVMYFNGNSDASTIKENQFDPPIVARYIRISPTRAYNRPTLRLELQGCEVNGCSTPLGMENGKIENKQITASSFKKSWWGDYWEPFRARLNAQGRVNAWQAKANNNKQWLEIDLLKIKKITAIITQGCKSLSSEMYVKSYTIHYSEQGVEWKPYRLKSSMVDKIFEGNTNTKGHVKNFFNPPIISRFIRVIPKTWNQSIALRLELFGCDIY
The prothrombinase inhibition assay was performed in a plasma free system with modifications to the method described by Sinha, U. et al., Thromb. Res., 75, 427-436 (1994). Specifically, the activity of the prothrombinase complex was determined by measuring the time course of thrombin generation using the p-nitroanilide substrate Chromozym TH. The assay consists of preincubation (5 minutes) of selected compounds to be tested as inhibitors with the complex formed from factor Xa (0.5 nM), factor Va (2 nM), phosphatidyl serine:phosphatidyl choline (25:75, 20 μM) in 20 mM Tris-HCl buffer, pH 7.5, containing 0.15 M NaCl, 5 mM CaCl2 and 0.1% bovine serum albumin. Aliquots from the complex-inhibitor mixture were added to prothrombin (1 nM) and Chromozym TH (0.1 mM). The rate of substrate cleavage was monitored at 405 nm for two minutes. Eight different concentrations of inhibitor were assayed in duplicate. A standard curve of thrombin generation by an equivalent amount of untreated complex was used for determination of percent inhibition.

[1] abbreviates: table of Examples 6-18, unit inferred, read-out: IIA (IC50).
Where [2] appears, read: table of Examples 6-18, unit inferred, read-out: XA (IC50).
The mark [3] stands for this setting: Table 5, read-out: Inhibitory Activity (IC50) Thrombin.
The mark [4] stands for this setting: Table 5, read-out: Inhibitory Activity (IC50) Factor Xa.

Read-outs that look alike come from different tables or passages of the source.

factor Xa, sequence (P00742 235-488 limits assumed): as the sequence (P00742 235-488 limits assumed) above
factor Xa, sequence (P00742 41-179 limits assumed): as the sequence (P00742 41-179 limits assumed) above

For `CCn1c(Cn2c(C(C)C)nc3ccc(OC4CCN(C(C)=N)CC4)cc32)cc2ccc(C(=N)N)cc21` [Example 6], the IC50 was found to be 16.4 nM at thrombin (setting [1]), 148 nM on factor Xa (setting [2]) and 139 nM at prothrombinase complex.
Regarding `CCn1c(Cn2c(C(C)C)nc3cc(OC4CCN(C(C)=N)CC4)ccc32)cc2ccc(C(=N)N)cc21` [Example 7], the IC50 on thrombin (setting [3]) is 805 nM; at thrombin (setting [1]), 805 nM; on factor Xa (setting [4]) it was 1.2 nM; at factor Xa (setting [2]), 1.2 nM; at prothrombinase complex, 9.67 nM.
In the case of `CCOC(=O)c1nc2cc(OC3CCN(C(C)=N)CC3)ccc2n1Cc1cc2ccc(C(=N)N)cc2n1CC` [Example 18], the IC50 worked out at 1300 nM on thrombin (setting [3]); 1360 nM at thrombin (setting [1]); 18 nM at factor Xa (setting [4]); 18 nM on factor Xa (setting [2]); 167 nM at prothrombinase complex.
Regarding `CC(=N)N1CCC(Oc2ccc3c(c2)nc(C(C)C)n3Cc2cccc(-c3cccc(C(=N)N)c3)c2)CC1` [Example 10], the IC50 at thrombin (setting [3]) amounted to 26300 nM; on thrombin (setting [1]), 26300 nM; on factor Xa (setting [4]) it was 5.73 nM; at factor Xa (setting [2]), 5.73 nM; at prothrombinase complex, 2.56 nM.
As to `CC(C)c1nc2cc(OC3CCN(C)CC3)ccc2n1Cc1cccc(-c2cccc(C(=N)N)c2)c1` [Example 8], the 50% inhibitory concentration (IC50) worked out at 29000 nM at thrombin (setting [1]), 32.2 nM on factor Xa (setting [2]) and 375 nM at prothrombinase complex.
In the case of `CC(=N)N1CCC(Oc2ccc3nc(C(C)C)n(Cc4ccc5ccc(C(=N)N)cc5c4)c3c2)CC1` [Example 11], the values for the IC50 on factor Xa (setting [2]) and on prothrombinase complex were 10.4 nM and 17 nM, respectively.
Take `CC(=N)N1CCC(Oc2ccc3nc(C(C)C)n(Cc4cccc(-c5cccc(C(=N)N)c5)c4)c3c2)CC1` [Example 9]: the concentration for half-maximal inhibition (IC50) on thrombin (setting [1]) is 9610 nM; at factor Xa (setting [2]), 658 nM; on prothrombinase complex, 9040 nM.

These data come from patent US20020072530A1, “Indole and benzimidazole inhibitors of factor Xa” (priority 2000, published 2002).
